Assay results: patent US20240327768A1, “MICROFLUIDIC DEVICE MIMICKING TUMOR MICROENVIRONMENT” (The Texas A&M University System, priority 2021, published 2024)

Key:
ovarian cancer cell = settings: in vitro study; cited from earlier work
[1] = test system: A2780 epithelial ovarian cancer cells; experiment: Cancer cell ECM invasion in OTME-Chip (A2780); assay type: cell-based, human; settings: OTME-Chip with extravasated platelets, analyzed for three days; Revacept 40 μg/mL, cisplatin 6 μg/mL
Source text: OTME-Chip predicts that pharmaceutical inhibition of GPVI arrests metastasis and supports chemotherapy. The potential consequences of pharmaceutical targeting of GPVI on platelets in cancer were then investigated. There are currently no FDA-approved anti-GPVI drugs in the market. However, Revacept is an inhibitor that has been successfully evaluated against collagen-mediated platelet adhesion in phase I clinical trials of atherosclerosis and stroke. Revacept inhibited the platelet GPVI and tumor galectin-3 interaction in a colon carcinoma cell line. This drug is a fusion protein consisting of the Fc part of human IgG, a short hinge region, a specific linker sequence, and the extracellular part of human platelet GPVI with a molecular mass of 150 kDa. […] Thereafter, these chips were analyzed for three days (FIG. 7). […]
Cell invasion. […] Invasion dynamics of live stained cancer cells (green) into the Chip ECM chamber hydrogel was visualized using fluorescence microscopy (Zeiss Axio Observer; LD Plan Neofluar 10×, NA 0.4). […] Images were analyzed and processed using software ZEN 2.3 lite (ZEISS). […] The ECM invasion of cancer cells was calculated as the ratio of area occupied by invaded cancer cells in ECM chamber vs. the total area of ECM chamber.

[2] = test system: growth factors (PDGF, VEGF, and TGFβ) and cytokines (IL-8, MMP9, and IL-6); experiment: Growth factors and cytokines in OTME-Chip tumor chamber effluents (multiplex); assay type: cell-based, human; settings: Revacept 40 μg/mL, cisplatin 6 μg/mL
Procedure: (§1) Drugs. Cisplatin (Fisher Scientific, USA) and Revacept (Advancecor GamBH, Germany) were dissolved in DMSO and PBS/4% Mannitol/1% Sucrose respectively to prepare master stocks (1 mg/mL). These were further diluted in RMPI-1640 media to obtain respective working concentrations of cisplatin (6 μg mL^−1) and Revacept (40 μg mL^−1). They were perfused into the chip tumor chamber individually or in combination in presence or absence of extravasated platelets.
Growth factors and cytokines. Growth factors and cytokines present in OTME-Chip tumor chamber media effluents were measured using multiplex (xMAP) magnetic bead-based technology provided by Millipore. Media effluents collected from tumor chamber during different time points were analyzed for cytokines and growth factors using MILLIPLEX® MAP Human cytokine/chemokine magnetic bead panel kit (Millipore, CAS-HCYTOMAG-60K) by following previously established protocols. Assays were run in a pre-calibrated Luminex MAPGPIX reader. The mean fluorescent intensity (MFI) of the magnetic beads correlating with the concentration (pg/mL) of respective cytokines and growth factors was calculated using xPONENT 4.2 software and data analysis was done with Milliplex Analyst 5.1 software (Millipore). The concentration of cytokines obtained in each sample was normalized with respect to controls and the assays were run in triplicate. […]

[3] = test system: A2780 epithelial ovarian cancer cells; experiment: Cancer cell proliferation assay (Ki67) in OTME-Chip; assay type: cell-based, human; settings: OTME-Chip with extravasated platelets; Revacept 40 μg/mL, cisplatin 6 μg/mL
Procedure: as §1
Cancer cell proliferation assay. Isolated cancer cells were immunostained with monoclonal anti-Ki67 antibody-Alexa Fluor488 conjugate (Abcam). The fluorescence intensity was then measured with a plate reader using excitation/emission wavelengths of 488/519 nm. Platelet free cancer cells obtained from other chips during similar time points were kept as control. Proliferation rate was measured as a percentage ratio of fluorescent intensities of experimental and control cells.

[4] = test system: metastasis and cell proliferation genes; experiment: Transcriptional analysis (qRT-PCR) of cancer cells from OTME-Chip; assay type: cell-based, human; settings: cancer cells obtained from the chips, over time; Revacept 40 μg/mL, cisplatin 6 μg/mL
Procedure: as §1
Quantitative real-time PCR. Cancer cell total RNA was isolated using the Arcturus PicoPure RNA Isolation Kit specifically (Thermofisher Scientific, CAS-KIT0214) designed to recover high-quality RNA consistently from fewer cells. Cells isolated from the Chip were washed in prescribed in buffer (0.9 mL of 1×PBS/10% BSA; 0.1 mL of 0.5 M EDTA) and total cellular RNA was isolated by using the manufacturer's protocol. […] The cDNA prepared was further used for the subsequent quantitative qRT-PCR reactions using SyBR green master mix (Applied Biosystems™ SYBR™ Green select PCR Master Mix) and gene specific primers. […] Gene expression was analyzed by quantifying the relative fold changes in mRNA levels of individual genes using comparative Cycle Threshold (CT)/ACT method.

[5] = test system: A2780 epithelial ovarian cancer cells; experiment: Cell cycle analysis of cancer cells from OTME-Chip; assay type: cell-based, human; settings: OTME-Chip with extravasated platelets, compared to untreated controls; Revacept 40 μg/mL, cisplatin 6 μg/mL
Procedure: as §1
Cell cycle analysis. Cancer cells isolated via Accutase™ treatment from the chip were fixed in 70% ethanol at […] for 6 hr and permeabilized. Cells were then incubated with 100 μg mL^−1 Propidium Iodide (PI) (Sigma-Aldrich), and 50 μg mL^−1 ribonuclease A in the dark for 30 min at 37° C. Flow cytometry was performed on a BD Accuri C6 flow cytometer (BD Biosciences, USA) and cell cycle analysis was done using CellQuest Pro software.

[6] = test system: A2780 epithelial ovarian cancer cells; experiment: RNA sequencing and differential gene analysis of chip-derived tumors; assay type: cell-based, human; settings: RNA-seq of chip-derived tumors
Procedure: Validation of cancer cell-platelet-drug crosstalk within OTME-Chip with next generation RNA-sequencing. It was recently shown that a collaboration of organ-chip technology with RNA-seq analysis is a powerful tool to validate preclinical studies and derive unbiased clinical predictions. Therefore, to solidify insights into the platelet-tumor signaling nexus and the therapeutic effect of Revacept, transcriptomic profiling was performed of different chip-derived tumors through RNA sequencing. Through RNA sequencing and differential gene analysis, expression of 12452 genes in the OTME-Chip relative to Control-Chip was detected. Similarly, expression of 5566, 6909 and 3821 genes in the Cx-OTME-Chip, CxRx-OTME-Chip and KO-OTME-Chip respectively relative to Control-Chip was detected. […]
RNA sequencing and analysis. […] Isolated mRNA samples were then analyzed using the NextSeq 500 platform (Illumina) and sample preparation was performed using TruSeqRNA sample preparation with paired-end read length of 2×75 bases (Molecular Genomics Workspace, Texas A&M University, College Station, TX). Then HISAT2 was used to splice align the reads to latest ENSEMBL-release-102 human genome/transcriptome (GRCh38.p13). […] Differentially expressed genes were then evaluated for all groups using DESeq2 package in R®. […]

CC(=O)Oc1ccccc1C(=O)O [aspirin, acetylsalicylic acid]
platelet-induced ovarian cancer cell invasion (ovarian cancer cell): attenuated

N.N.[Cl][Pt][Cl] [cisplatin, reference compound]
ECM invasion of cancer cells / tumor invasiveness [1]: modest effect
concentration of growth factors (PDGF, VEGF, TGFβ) and cytokines (IL-8, MMP9, IL-6) [2]: modest effect
proliferation rate of the cancer cells [3]: modest effect
platelet-induced upregulation of metastasis and cell proliferation genes [4]: altered overtime modestly
G2/M phase in cancer cells [5]: modest effect
expression of genes of signaling pathways (NFκB, TGFβ/Smad, Hippo, MAPK, mTOR, Notch, PI3-Akt, Wnt), volcano plots [6]: reduced
expression of these pathways, heatmaps of expression profiles ([6]; different chip conditions): downregulated
